Measurements from ChEMBL document CHEMBL1201862, “PubChem BioAssay data set” (2004).
Calls of active or inactive are those of the source.

Experiments:
[1] = target: NADPH oxidase 1 (Homo sapiens, UniProt Q9Y5S8); assay: Late stage results from the probe development effort to identify inhibitors of NOX1: HEK/293 IC50. [Related pubchem assays: 1796 (Summary AID (NOX1)), 2752 (Primary screen (NOX1 inhibitors, synthesized analogs set 2)), 2664 (Primary screen (NOX1 inhibitors, synthesized analogs)), 1792 (Primary Screen (NOX1)), 2545 (Confirmation screen (NOX1 …; format: functional
[2] = TRPM1 promoter luciferase reporter signal decrease, dose response, MITF inhibitor project, cell-based, SK-MEL-5, dry powder, set 9 (AID 651588); format: functional
[3] = A375 melanoma cell viability loss, dose response, counter-screen for MITF inhibitor project, CellTiter-Glo luminescence, dry powder, set 4 (AID 624364); format: functional, cell-based; conditions: A-375;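 also: A375 melanoma cells are MITF independent so this is a counter screen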
[4] = A375 melanoma cell cytotoxicity, dose response, counter-screen for MITF inhibitor project, CellTiter-Glo luminescence, dry powder, set 7 (AID 624490); format: functional, cell-based; conditions: A-375
[5] = MITF Orthogonal Assay: MALME3 CTG Assay Measured in Cell-Based System Using Plate Reader - 2084-04_Inhibitor_Dose_DryPowder_Activity_Set6.; format: functional; conditions: MALME-3
[6] = SK-MEL-5 parental cell viability reduction, dose response, orthogonal assay for MITF inhibitor project, CellTiter-Glo luminescence, dry powder, set 8 (AID 651586); format: functional, cell-based
[7] = MALME3 melanoma cell viability reduction, dose response, orthogonal assay for MITF inhibitor project, CellTiter-Glo luminescence, dry powder, set 5 (AID 651584); format: functional, cell-based; conditions: MALME-3
[8] = SK-MEL-5 parental line viability, dose response, MITF inhibitor project, cell-based, CellTiter-Glo, dry powder, set 6 (AID 624429); format: functional
[9] = MITF Orthogonal Assay: SK-MEL-5 CTG Assay Measured in Cell-Based System Using Plate Reader - 2084-02_Inhibitor_Dose_DryPowder_Activity_Set5.; format: functional
[10] = A375 melanoma cell cytotoxicity, dose response, counter-screen for MITF inhibitor project, CellTiter-Glo luminescence, dry powder, set 6 (AID 624488); format: functional, cell-based; conditions: A-375
[11] = A375 melanoma cell viability loss, dose response, counter-screen for MITF modulator project, CellTiter-Glo luminescence, dry powder, set 9 (AID 651591); format: functional, cell-based; conditions: A-375
[12] = MITF Measured in Cell-Based System Using Plate Reader - 2084-01_Inhibitor_Dose_DryPowder_Activity_Set6.; format: functional
[13] = A375 melanoma cell cytotoxicity, dose response, counter-screen for MITF inhibitor project, CellTiter-Glo luminescence, dry powder, set 2 (AID 624489); format: functional, cell-based; conditions: A-375;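 also: actives are compounds lowering A375 viability meaning general cytotoxicity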
[14] = MITF Measured in Cell-Based System Using Plate Reader - 2084-01_Inhibitor_Dose_DryPowder_Activity_Set7.; format: functional
[15] = cytotoxicity in primary human melanocytes, dose response, cytotoxicity control, cell-based, plate reader, dry powder (AID 651920); format: functional
[16] = Luminescence Cell-Based Dose Retest to Confirm Inhibitors of Cancer Stem Cells. [Related pubchem assays (depositor defined):AID2717, AID2721]; format: functional; conditions: Homo sapiens
[17] = HeLa 2N DNA content increase, dose response, cell-based, IC50 (AID 1117349); format: functional
[18] = Concentration-dependent survival of SW480 colon cancer line, luminescence detection with CellTiter-Glo, half-maximal inhibitory concentration (AID 1117338); format: functional
[19] = RKO cell viability reduction, dose response, CellTiter-Glo luminescence (AID 1117322); format: functional
[20] = cytotoxicity toward HCT116 cells – cell-based, CellTiter-Glo luminescence, IC50, dose response (AID 1117332); format: functional; conditions: HCT-116
[21] = SNU-C1 cell viability reduction, dose response, CellTiter-Glo luminescence (AID 1117323); format: functional, cell-based
[22] = cytotoxicity toward Colo320 cells – cell-based, CellTiter-Glo luminescence, IC50, dose response (AID 1117334); format: functional; conditions: COLO 320
[23] = HeLa 4N DNA content increase, dose response, cell-based, IC50 (AID 1117351); format: functional
[24] = cytotoxicity toward HT-29 cells – cell-based, CellTiter-Glo luminescence, IC50, dose response (AID 1117330); format: functional
[25] = CellTiter-Glo luminescent dose response of DLD-1 viability loss (AID 1117352); format: functional
[26] = HCT116 cell viability decrease, GSK3B pretreatment – CellTiter-Glo, IC50, dose response (AID 1117339); format: functional; conditions: HCT-116
[27] = target: T1, Cytochrome P450 2C19 (Homo sapiens, UniProt P33261); assay: Cytochrome panel assay with activity outcomes. Panel member name: p450-cyp2c19 Compounds with AC50 equal or less than 10 uM are considered active; format: functional; conditions: read-out: AC50
[28] = inhibitors of Vif binding to APOBEC3G peptide, primary screen, biochemical, TR-FRET, GST-Vif 1-94, biotin-A3G peptide, dose response retest (AID 1117319); format: functional;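 also: TR-FRET signal of purified GST-Vif binding a biotinylated A3G peptide; inhibitors lower the FRET signal by blocking Vif and A3G binding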
[29] = target: Cytochrome P450 2C9 (Homo sapiens, UniProt P11712)
[30] = target: T1, Cytochrome P450 2C19; assay: qHTS Assay for Inhibitors and Substrates of Cytochrome P450 2C19. [Related pubchem assays: 410 ]; format: ADME; conditions: read-out: Potency
[31] = target: Genome polyprotein (Hepatitis C virus, UniProt Q2Q167); assay: HCV core protein dimerization inhibitors, dose response, biochemical, TR-FRET (AID 2159); set-up: species or system Hepacivirus hominis;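 also: blocks dimerization of HCV core protein measured by TR-FRET between tagged core106 pairs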
[32] = target: T2, Carboxy-terminal domain RNA polymerase II polypeptide A small phosphatase 1 (Homo sapiens, UniProt Q9GZU7); assay: inhibitors of CTDSP1, concentration-response testing, biochemical assay, absorbance-based, actives from ultra-high-throughput screening (AID 540297); format: functional
T2 sequence (Q9GZU7 whole entry): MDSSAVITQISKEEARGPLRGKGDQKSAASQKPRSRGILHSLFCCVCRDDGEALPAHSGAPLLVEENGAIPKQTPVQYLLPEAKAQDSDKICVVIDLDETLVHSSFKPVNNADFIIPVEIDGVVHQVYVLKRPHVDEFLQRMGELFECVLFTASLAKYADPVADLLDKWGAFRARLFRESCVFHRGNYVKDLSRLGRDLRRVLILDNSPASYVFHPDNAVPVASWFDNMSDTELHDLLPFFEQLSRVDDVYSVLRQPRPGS

[33] = target: T3, Probable nicotinate-nucleotide adenylyltransferase (Staphylococcus aureus (strain N315), UniProt P65502); format: functional, Staphylococcus aureus subsp. aureus N315;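 as to IC50 Mean: confirmatory dose-response retesting of NadD inhibitor hits first found in an ultra-high-throughput screen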
[34] = target: T3, Probable nicotinate-nucleotide adenylyltransferase; format: functional, Staphylococcus aureus subsp. aureus N315; conditions: read-out: IC50_Mean
[35] = target: Luciferin 4-monooxygenase (Photinus pyralis, UniProt P08659); assay: firefly luciferase enzyme inhibitors, dose response, biochemical, luminescence (AID 1891)
[36] = Luminescence Cell-Based Dose Confirmation HTS to Identify Inhibitors of Platelet Dense Granule Release. [Related pubchem assays: 1663 (Primary HTS), 1678 (Summary of Project)]; format: functional
[37] = Late stage counterscreen results from the probe development effort to identify activators of signal transducer and activator of transcription 1 (STAT1): luminescence-based cell-based dose response assay to identify cytotoxic compounds.; format: functional

T3 sequence (P65502 whole entry): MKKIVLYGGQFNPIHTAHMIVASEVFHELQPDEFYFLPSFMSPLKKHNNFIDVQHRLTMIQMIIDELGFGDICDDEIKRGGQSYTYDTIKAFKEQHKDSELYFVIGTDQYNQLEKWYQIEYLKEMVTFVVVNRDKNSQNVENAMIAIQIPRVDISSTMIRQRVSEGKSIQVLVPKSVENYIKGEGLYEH
T1 sequence (P33261 whole entry): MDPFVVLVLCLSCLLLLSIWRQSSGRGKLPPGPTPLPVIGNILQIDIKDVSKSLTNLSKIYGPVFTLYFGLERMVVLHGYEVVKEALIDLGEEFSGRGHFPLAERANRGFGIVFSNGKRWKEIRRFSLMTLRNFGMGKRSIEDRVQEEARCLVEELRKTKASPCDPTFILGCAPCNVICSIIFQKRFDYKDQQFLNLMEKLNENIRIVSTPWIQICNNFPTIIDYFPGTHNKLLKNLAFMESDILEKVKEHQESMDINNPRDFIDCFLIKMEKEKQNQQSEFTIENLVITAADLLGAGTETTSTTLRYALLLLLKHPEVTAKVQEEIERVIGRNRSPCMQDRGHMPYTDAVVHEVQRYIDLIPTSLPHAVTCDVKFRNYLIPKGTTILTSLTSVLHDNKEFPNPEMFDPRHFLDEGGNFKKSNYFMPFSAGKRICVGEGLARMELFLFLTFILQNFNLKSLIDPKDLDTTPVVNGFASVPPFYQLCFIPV
Luciferin 4-monooxygenase, sequence (P08659 whole entry): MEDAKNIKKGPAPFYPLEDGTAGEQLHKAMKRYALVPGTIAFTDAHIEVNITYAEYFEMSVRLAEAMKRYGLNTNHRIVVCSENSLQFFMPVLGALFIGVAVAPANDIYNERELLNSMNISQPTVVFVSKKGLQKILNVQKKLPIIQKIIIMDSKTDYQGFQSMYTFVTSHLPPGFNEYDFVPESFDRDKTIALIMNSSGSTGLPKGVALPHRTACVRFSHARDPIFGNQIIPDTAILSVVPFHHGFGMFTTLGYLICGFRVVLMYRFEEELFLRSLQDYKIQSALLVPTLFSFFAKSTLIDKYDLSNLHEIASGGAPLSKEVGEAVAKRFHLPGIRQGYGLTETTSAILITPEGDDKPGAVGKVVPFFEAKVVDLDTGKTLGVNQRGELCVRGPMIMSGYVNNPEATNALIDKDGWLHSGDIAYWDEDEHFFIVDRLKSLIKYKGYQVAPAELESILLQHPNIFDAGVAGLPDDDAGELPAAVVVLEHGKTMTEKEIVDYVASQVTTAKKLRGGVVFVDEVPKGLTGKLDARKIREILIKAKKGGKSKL
Cytochrome P450 2C9, sequence (P11712 whole entry): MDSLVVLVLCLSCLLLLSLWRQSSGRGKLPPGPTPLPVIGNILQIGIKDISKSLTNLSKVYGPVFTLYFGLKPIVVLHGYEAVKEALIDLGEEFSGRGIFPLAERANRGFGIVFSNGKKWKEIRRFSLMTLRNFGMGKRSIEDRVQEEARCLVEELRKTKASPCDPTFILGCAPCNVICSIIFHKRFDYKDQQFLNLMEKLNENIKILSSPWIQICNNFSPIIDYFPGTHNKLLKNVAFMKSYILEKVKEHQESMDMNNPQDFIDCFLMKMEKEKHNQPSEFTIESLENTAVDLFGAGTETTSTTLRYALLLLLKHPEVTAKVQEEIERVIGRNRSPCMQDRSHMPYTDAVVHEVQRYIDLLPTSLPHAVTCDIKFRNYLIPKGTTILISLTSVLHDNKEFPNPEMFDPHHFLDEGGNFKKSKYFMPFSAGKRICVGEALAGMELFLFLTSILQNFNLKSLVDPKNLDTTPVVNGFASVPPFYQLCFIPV
NADPH oxidase 1, sequence (Q9Y5S8 whole entry): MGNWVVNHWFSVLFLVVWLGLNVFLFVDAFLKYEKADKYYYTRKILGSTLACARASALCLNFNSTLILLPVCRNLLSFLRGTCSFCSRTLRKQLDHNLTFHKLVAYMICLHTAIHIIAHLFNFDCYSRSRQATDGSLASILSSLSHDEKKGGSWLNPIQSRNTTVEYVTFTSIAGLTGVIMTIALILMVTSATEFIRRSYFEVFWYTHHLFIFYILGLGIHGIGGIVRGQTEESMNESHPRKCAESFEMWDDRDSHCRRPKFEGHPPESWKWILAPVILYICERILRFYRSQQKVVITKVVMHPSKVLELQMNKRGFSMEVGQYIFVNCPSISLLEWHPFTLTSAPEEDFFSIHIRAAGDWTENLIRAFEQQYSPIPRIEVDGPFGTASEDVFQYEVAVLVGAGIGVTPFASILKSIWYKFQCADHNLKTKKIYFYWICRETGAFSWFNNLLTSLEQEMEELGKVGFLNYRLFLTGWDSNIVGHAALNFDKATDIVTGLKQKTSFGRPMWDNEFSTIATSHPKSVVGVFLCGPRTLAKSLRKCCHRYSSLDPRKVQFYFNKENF
Genome polyprotein, sequence (Q2Q167 whole entry, the tested form may be a part): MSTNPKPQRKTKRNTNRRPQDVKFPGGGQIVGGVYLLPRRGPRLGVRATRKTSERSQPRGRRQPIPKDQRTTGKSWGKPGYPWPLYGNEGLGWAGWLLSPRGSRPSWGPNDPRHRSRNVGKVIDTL

In the case of `O=C(Oc1ccccc1N1CCCCC1)c1sc2ccccc2c1Cl`, the IC50 [1] is reported as 2.31 µM (active).

For `COC1=C(NS(=O)(=O)c2ccccc2)C(=O)c2ccccc2C1=O`, the AC50 [2] was 18.9 µM (active), the AC50 [3] was > 70 µM (inactive) and the AC50 [4] was > 70 µM (inactive). For the same molecule, the AC50 [5] was 31.8 µM (active), the AC50 [6] was 14.5 µM (active) and the AC50 [7] was 31.8 µM (active). The AC50 [8] was 16.4 µM (active), the AC50 [9] was 9.13 µM (active) and the AC50 [10] was > 70 µM (inactive). The AC50 [11] was > 70 µM (inactive), the AC50 [12] was 6.32 µM (active) and the AC50 [13] was > 70 µM (inactive). For the same molecule, the AC50 [14] was 7.44 µM (active) and the AC50 [15] was 27.5 µM (active).

For `O=C1[C@H]2CCCC[C@H]2C(=O)N1CCCCN1CCN(c2nsc3ccccc23)CC1`, the AC50 [16] was 3.47 µM (active), the IC50 [17] was > 10 µM (inactive) and the IC50 [18] was 5.91 µM (inactive). The IC50 [19] was 0.546 µM (active), the IC50 [20] was 2.06 µM (active) and the IC50 [21] was 9.37 µM (inactive). The IC50 [22] was 13.2 µM (inactive), the IC50 [23] was > 10 µM (inactive) and the IC50 [24] was 2.01 µM (active). The IC50 [25] was 8.24 µM (inactive) and the IC50 [26] was 1.67 µM (active).

In the case of `COC(=O)[C@@]1(Cc2ccc(OC)cc2)[C@H]2c3cc(C(=O)N(C)C)n(C[C@H](O)CO)c3C[C@H]2CN1C(=O)c1ccccc1`, the AC50 [27] is reported as 31.6 µM (inconclusive), the IC50 [28] is reported as > 100 µM (active) and the AC50 [29] is reported as 31.6 µM (inconclusive).

With `CC(C)C[C@@H](CC(=O)N[C@H](CC(=O)N[C@@H]1CCCC[C@H]1C(=O)N[C@H](CC(=O)N[C@@H](CCC(=O)O)CC(=O)O)CC(C)C)C(C)C)NC(=O)[C@@H]1CNCC[C@H]1N` the AC50 [30] was 31.6 µM (inconclusive).

In the case of `Cc1ccc(NC(=O)c2cc(-c3ccco3)nc3ccccc23)cc1S(=O)(=O)N1CCOCC1`, the IC50 [31] is reported as > 49.8 µM (not active), the IC50 [32] is reported as 5.51 µM (active) and the IC50 [33] is reported as 8.01 µM (active). For the same molecule, the IC50 [34] was 26.6 µM (active).

For `O=C(/C=C/Nc1ccccc1F)c1ccc(Br)cc1`, the EC50 [35] was 74.5 µM (active), the EC50 [36] was > 112 µM (not active) and the IC50 [37] was > 55.7 µM (not active).
